The test system of data set [1] is DU145 prostate cancer cells. The data set is described as follows: MTT cell viability assay, DU145 prostate cancer cells. Type of data set: cell-based, human. The following applies: DU145 (p53-mutant, AR−), 24-72 hr, paclitaxel 1 nM. An excerpt: Cell viability was detected by MTT assays, and the control (PBS-treated) cells were considered 100% viable. Mean±SE (N=3). *P<0.05, **P<0.01, ***P<0.001.
(§1) Cell lines and culture: Human cancer and noncancer (immortalized and nonimmortalized) cell lines were obtained from the American Type Culture Collection [prostate cancer (PC3, DU145 and LNCaP), normal prostate (CRL11611), breast cancer (MCF-7), ovarian cancer (SK-OV3 adenocarcinoma), lung cancer (A549)]. MDD2 breast cancer cells (p53 dominant-negative) were provided courtesy of Dr Andrei V. Gudkov, Roswell Park Cancer Institute. 20 All cell lines were cultured in MEM-E (Invitrogen) supplemented with 10% heat-inactivated fetal bovine serum (Atlanta Biological, Inc.), 100 units/mL penicillin, and 100 μg/mL streptomycin at 37° C. in 5% CO2.
(In general: Formazan colour is commonly taken as a measure of viable cells.)

Data set [2] relates to LNCaP prostate cancer cells. The data set is described as follows: MTT cell viability assay, LNCaP prostate cancer cells. Type of data set: cell-based, human. The note with it: LNCaP (p53 wild-type, AR+), 24-72 hr; paclitaxel 1 nM. Here is the method: as §1
In data set [3] the test system is PC3 prostate cancer cells. The data set is described as follows: MTT cell viability assay, PC3 prostate cancer cells. Type of data set: cell-based, human. The note with it: PC3 (p53-null, AR−), 24-72 hr, paclitaxel 1 nM. The procedure: as §1
Data set [4] relates to normal prostate cells CRL11611. Put plainly: MTT cell viability assay, normal prostate CRL11611 cells. The class given is cell-based, human. The following applies: normal prostate CRL11611 (p53+, AR+), 24-72 hr, paclitaxel 1 nM.
Text: FIG. 4A-4D: Effect of peptides on prostate cancer cell lines with differences in p53 and AR expression status. […] Control (PBS)-treated cells were considered to have 100% viability. Mean±SE (N=3).
as §1
Cytotoxicity assay: The MTT assay was performed as we previously described (Cha et al., Cancer Research 2020, 80: 1615-1623).

The next data set has as its system LNCaP cells. Put plainly: Annexin-V apoptosis assay by flow cytometry, LNCaP. The class given is cell-based, human. The note with it: 48 hr, Ptxl 1 nM, p28 50 μM, aurA/aurB 0.5-50 μM. The procedure:
(§2) FIG. 7A-7D: Determination of apoptotic cell death. Prostate cancer cell lines (7A: LNCaP, 7B: DU145 and 7C: PC3) and normal prostate CRL11611 cells (7D) were exposed to the indicated agents for 48 hr and stained using apoptosis assay kits according to the manufacturer's instructions. The samples were analyzed by flow cytometry. Mean±SE (N=3).
(§3) After 48 hr, annexin-V apoptosis assays (Thermo Fisher Scientific) were conducted to detect apoptotic cells. At least 10,000 cells in each case were analyzed by FACS (RRC, UIC).
On the technique in general: A flow cytometer gives signals particle by particle.

For a further data set, the system named is DU145 cells. Put plainly: Annexin-V apoptosis assay by flow cytometry, DU145. The following applies: DU145, 48 hr; Ptxl 1 nM, p28 50 μM, aurA/aurB 0.5-50 μM. Type of data set: cell-based, human. Here is the method:
as §2, §3

A further data set concerns PC3 cells. The data set is described as follows: Annexin-V apoptosis assay by flow cytometry, PC3. The note with it: PC3, 48 hr; Ptxl 1 nM, p28 50 μM, aurA/aurB 0.5-50 μM. Type of data set: cell-based, human. Here is the method:
as §2, §3

The test system of data set [5] is normal prostate CRL11611 cells. Put plainly: Annexin-V apoptosis assay by flow cytometry, normal prostate CRL11611. The class given is cell-based, human. The following applies: normal CRL11611, 48 hr; Ptxl 1 nM, p28 50 μM, aurA/aurB 0.5-50 μM. The procedure:
as §2, §3

In the next data set the test system is PC3 xenograft tumors. Put plainly: PC3 xenograft animal model. The following applies: end of treatment, four weeks i.p.; aurB 5 mg/kg daily, Ptxl 10 mg/kg once a week. The class given is in vivo, athymic mice. An excerpt: FIG. 10A-10D: Inhibition of PC3 xenograft tumor growth. 10A, When the s.c. tumors reached ˜5 mm, athymic mice were randomized into control (PBS) and i.p. treatment groups. Mean±SE (N=5). *P<0.01. […] 10C, At the end of treatment, tumors were dissected and weighed. * P<0.01. 10D, In sections of tumors from the control group, there was a marked increase in Ki-67-positive proliferating cells (stained brown and counterstained with haematoxylin, ×40), and only a few apoptotic cells were observed, as determined by TUNEL and caspase-3 (Casp-3) staining. There was an apparent sharp reduction in Ki-67-positive proliferating cells and a higher number of TUNEL-positive apoptotic cells in the aurB-treated group compared to the control group. Similarly, Casp-3 expression in aurB-treated tumors was increased markedly compared with that in untreated controls.
Xenograft animal model: Human prostate cancer cells (PC3) were injected s.c. into the right flanks of 5- to 6-week-old male athymic mice 78. When tumors reached 5 mm in diameter, animals were randomized into control and treatment groups. […] All animals were weighed twice a week. At necropsy, tumors were dissected and weighed. Statistical comparisons were performed by one-way analysis of variance (ANOVA) (control vs treatment). Tumor samples were fixed overnight in 10% buffered formalin. Fixation was followed by dehydration, clearing and infiltration. Samples were then embedded in paraffin, and 4 μm sections were cut on a microtome. Ki67 (LabVision) staining was performed on the tissue sections using a Vector Vectastain Elite ABC Kit. The TUNEL assay was performed on the sections using a Millipore Sigma ApopTag® Peroxidase In Situ Apoptosis Detection Kit.

With `CSCC[C@H](NC(=O)CNC(=O)[C@H](CC(=O)O)NC(=O)[C@@H](NC(=O)[C@@H](NC(=O)[C@@H](NC(=O)CNC(=O)[C@H](CCC(N)=O)NC(=O)[C@H](CCSC)NC(=O)[C@H](CC(=O)O)NC(=O)[C@H](C)NC(=O)[C@H](C)NC(=O)[C@@H](NC(=O)[C@H](CO)NC(=O)[C@@H](N)CC(C)C)[C@@H](C)O)C(C)C)C(C)C)[C@@H](C)O)C(=O)N[C@@H](C)C(=O)N[C@@H](CO)C(=O)NCC(=O)N[C@@H](CC(C)C)C(=O)N[C@@H](CC(=O)O)C(=O)N[C@@H](CCCCN)C(=O)N[C@@H](CC(=O)O)C(=O)N[C@@H](Cc1ccc(O)cc1)C(=O)N[C@@H](CC(C)C)C(=O)N[C@@H](CCCCN)C(=O)N1CCC[C@H]1C(=O)N[C@@H](CC(=O)O)C(=O)N[C@@H](CC(=O)O)C(=O)O` [p28, LST AAD MQG VVT DGM ASG LDK DYL KPDD, reference compound], the “cytotoxic effect (MTT cell viability)” value in data set [1] was “dose-dependent effect”; in data set [2], “dose-dependent effect”; in [3], “but not p53-null PC3 cells”; in data set [4] it was “but not p53-null PC3 cells or normal CRL11611 cells”.

On to `CC(=O)O[C@H]1C(=O)[C@@]2(C)[C@H]([C@H](OC(=O)c3ccccc3)[C@]3(O)C[C@H](OC(=O)[C@H](O)[C@@H](NC(=O)c4ccccc4)c4ccccc4)C(C)=C1C3(C)C)[C@]1(OC(C)=O)CO[C@@H]1C[C@@H]2O` [paclitaxel, reference compound], for which the “cytotoxic effect (MTT cell viability)” value is “significantly induced time-dependent cytotoxicity” in [1]; “less susceptible” in [1] (listed as Ptxl); “significantly induced time-dependent cytotoxicity” in data set [2]; “significantly induced time-dependent cytotoxicity” in data set [3]; “less susceptible” in [3] (listed as Ptxl); “significantly induced time-dependent cytotoxicity” in data set [4]. Besides, the “cytotoxic effect (MTT cell viability)” value in data set [4] (listed as Ptxl) is on record as “most toxic”. For the same compound, the apoptotic cell death result (in the data set on LNCaP cells; in the data set with DU145 cells; with PC3 cells; in data set [5]) was “induced apoptotic cell death” throughout. Besides, in the data set on PC3 xenograft tumors, the “tumor growth inhibition vs PBS control” value was determined as 52%.

For the origin of these results see patent US20250179126A1, “A NOVEL PEPTIDE FROM A PHOTOSYNTHETIC BACERIUM DIRECTLY TARGETS MITOCHONDRIA TO TRIGGER APOPTOSIS IN ADVANCED PROSTATE CANCER CELLS” (priority 2022, published 2025).
